Laboratory results reported in patent US5747467A, “Erythromycins” (Roussel Uclaf, priority 1995, dated 1998).
≈ marks a conversion by molar mass, not a printed value.

Legend:
Type in all cases: cell-based
[1] = test system: Haemophilus Influenzae 351HT3, 351CB12, 351CA1 and 351GR6; experiment: activity on gram (-) bacterial strains
Procedure: (§1) Method of dilutions in liquid medium A series of tubes was prepared into which an equal quantity of sterile nutritive medium was distributed. Increasing quantities of the product to be studied were distributed into each tube and then each tube was seeded with a bacterial strain. After incubation for twenty-four hours in an oven at 37° C., the growth inhibition was evaluated by trans-illumination which allowed the minimal inhibitory concentrations (M.I.C.), expressed in micrograms/cm^3, to be determined.

[2] = test system: Streptococcus agalactiae group B 02B1SJ1; experiment: M.I.C., dilutions in liquid medium; conditions: GROUPB02B1SJ1, 24 hours at 37° C., read-out: minimal inhibitory concentration (M.I.C.)
Procedure: as §1

[3] = test system: Streptococcus pneumoniae 030SJ5; experiment: M.I.C., dilutions in liquid medium; conditions: 24 hours at 37° C., read-out: minimal inhibitory concentration (M.I.C.)
Procedure: as §1

[4] = test system: Streptococcus sp group G 02G0GR5; experiment: M.I.C., dilutions in liquid medium; conditions: GROUPG02G0GR5, 24 hours at 37° C., read-out: minimal inhibitory concentration (M.I.C.)
Procedure: as §1

[5] = test system: Staphylococcus epidermidis 012GO11I; experiment: M.I.C., dilutions in liquid medium; conditions: 24 hours at 37° C., read-out: minimal inhibitory concentration (M.I.C.)
Procedure: as §1

[6] = test system: Streptococcus agalactiae group B 02B1HT1; experiment: M.I.C., dilutions in liquid medium; conditions: GROUPB02B1HT1, 24 hours at 37° C., read-out: minimal inhibitory concentration (M.I.C.)
Procedure: as §1

[7] = test system: Streptococcus faecium group D 02D3HT1; experiment: M.I.C., dilutions in liquid medium; conditions: Enterococcus faecium, GROUPD02D3HT1, 24 hours at 37° C., read-out: minimal inhibitory concentration (M.I.C.)
Procedure: as §1

[8] = test system: Staphylococcus aureus 011UC4; experiment: M.I.C., dilutions in liquid medium; conditions: 24 hours at 37° C., read-out: minimal inhibitory concentration (M.I.C.)
Procedure: as §1

[9] = test system: Staphylococcus aureus 011G025I; experiment: M.I.C., dilutions in liquid medium; conditions: 24 hours at 37° C., read-out: minimal inhibitory concentration (M.I.C.)
Procedure: as §1

[10] = test system: Streptococcus mitis 02mitCB1; experiment: M.I.C., dilutions in liquid medium; conditions: 24 hours at 37° C., read-out: minimal inhibitory concentration (M.I.C.)
Procedure: as §1

[11] = test system: Streptococcus mitis 02mitGR16I; experiment: M.I.C., dilutions in liquid medium; conditions: 24 hours at 37° C., read-out: minimal inhibitory concentration (M.I.C.)
Procedure: as §1

[12] = test system: Streptococcus faecalis group D 02D2UC1; experiment: M.I.C., dilutions in liquid medium; conditions: Enterococcus faecalis, GROUPD02D2UC1, 24 hours at 37° C., read-out: minimal inhibitory concentration (M.I.C.)
Procedure: as §1

[13] = test system: Streptococcus pyogenes group A 02A1UC1; experiment: M.I.C., dilutions in liquid medium; conditions: GROUPA02A1UC1, 24 hours at 37° C., read-out: minimal inhibitory concentration (M.I.C.)
Procedure: as §1

MIC [2]: 0.08 µg/mL (≈ 0.0995 µM) | MIC [3]: 0.02 µg/mL (≈ 0.0249 µM) | MIC [4]: 0.02 µg/mL (≈ 0.0249 µM) | MIC [5]: 0.15 µg/mL (≈ 0.187 µM) | MIC [6]: ≤ 0.02 µg/mL | MIC [7]: ≤ 0.02 µg/mL | MIC [8]: 0.04 µg/mL (≈ 0.0498 µM) | MIC [9]: 0.08 µg/mL (≈ 0.0995 µM) | MIC [10]: ≤ 0.02 µg/mL | MIC [11]: ≤ 0.02 µg/mL | MIC [12]: 0.02 µg/mL (≈ 0.0249 µM) | MIC [13]: ≤ 0.02 µg/mL
Structure (SMILES): CC[C@H]1OC(=O)C(C)(F)C(=O)[C@H](C)[C@@H](O[C@@H]2O[C@H](C)C[C@H](N(C)C)[C@H]2O)[C@](C)(OC)C[C@@H](C)C(=O)[C@H](C)[C@H]2N(CCCCn3cnc4cccnc43)C(=O)O[C@]12C (single isomer, unassigned) [Example 1, 11,12-dideoxy-3-de[(2,6-dideoxy-3-C-methyl-3-0-methyl-α-L-ribohexopyranosyl)-oxy]-2-fluoro-6-0-methyl-3-oxo-12,11-(oxycarbonyl( (4-(3H-imidazo(4,5-b)pyridin-3-yl)-butyl)-imino))-erythromycin]
activity on gram (-) bacterial strains [1]: very useful activity
